The source made the active and inactive calls.
What was measured:
Hexokinase HKDC1 = Hexokinase HKDC1 (Homo sapiens, UniProt Q2TB90); experiment: SAR analysis of small molecule inhibitors of hexokinase domain containing I (HKDC1). [Related pubchem assays (depositor defined):AID493160, AID493190]; assay type: functional
Hexokinase-1 = Hexokinase-1 (Homo sapiens, UniProt P19367); experiment: SAR analysis of small molecule inhibitors of hexokinase domain containing I (HKDC1) in the hexokinase 1 selectivity assay. [Related pubchem assays (depositor defined):AID493160, AID493190]; assay type: functional
Chain of Hexokinase-1 (P19367 whole entry, the tested form may be a part): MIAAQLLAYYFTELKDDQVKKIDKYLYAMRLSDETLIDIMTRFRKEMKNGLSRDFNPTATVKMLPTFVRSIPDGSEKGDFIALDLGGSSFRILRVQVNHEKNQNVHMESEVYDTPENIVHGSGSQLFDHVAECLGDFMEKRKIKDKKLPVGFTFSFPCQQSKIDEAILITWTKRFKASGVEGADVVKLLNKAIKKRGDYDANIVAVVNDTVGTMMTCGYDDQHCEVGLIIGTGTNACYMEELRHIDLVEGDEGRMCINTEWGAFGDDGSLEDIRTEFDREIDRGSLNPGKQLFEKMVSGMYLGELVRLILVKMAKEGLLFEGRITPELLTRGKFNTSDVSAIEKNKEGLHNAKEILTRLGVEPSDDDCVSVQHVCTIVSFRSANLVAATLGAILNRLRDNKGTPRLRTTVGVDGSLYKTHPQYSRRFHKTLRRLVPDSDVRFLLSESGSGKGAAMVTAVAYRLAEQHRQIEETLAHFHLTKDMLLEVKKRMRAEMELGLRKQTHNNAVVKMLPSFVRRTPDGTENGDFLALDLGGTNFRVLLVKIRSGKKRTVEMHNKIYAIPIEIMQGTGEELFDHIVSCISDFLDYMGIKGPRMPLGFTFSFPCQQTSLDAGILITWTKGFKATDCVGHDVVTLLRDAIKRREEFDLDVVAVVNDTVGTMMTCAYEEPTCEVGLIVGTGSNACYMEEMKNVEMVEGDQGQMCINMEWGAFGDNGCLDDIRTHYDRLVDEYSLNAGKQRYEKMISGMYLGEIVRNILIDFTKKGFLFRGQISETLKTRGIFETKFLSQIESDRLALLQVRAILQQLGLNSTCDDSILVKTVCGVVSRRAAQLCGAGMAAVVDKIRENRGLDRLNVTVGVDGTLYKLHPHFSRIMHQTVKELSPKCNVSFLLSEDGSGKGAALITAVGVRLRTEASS

[1] = Luminescence Cell-Based Dose Response HTS to Identify Activators of Luciferase Translation or Activity in H4 […] Cells. [Related pubchem assays: 1829 (Project Summary), 1814 (Primary HTS)]; assay type: functional
Streptococcus = experiment: Group A Streptococcus viability loss, dose response, counter-screen for streptokinase expression inhibitor project, luminescence, BacTiterGlo (AID 1915); assay type: functional, organism-based;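 also: potency for reduction of bacterial viability or growth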
[2] = Luminescence Cell-Based Dose Confirmation HTS to Identify Activators of 5'UTR Stem-Loop Driven Alpha-Synuclein mRNA Translation in H4 Neuroglioblastoma Cells. [Related pubchem assays: 1829 (Project Summary), 1814 (Primary HTS)]; assay type: functional
A-375 [3] = experiment: A375 melanoma cell viability reduction, dose response, counter-screen for MITF modulator project, cherry-pick samples, set 2 (AID 540335); assay type: functional, cell-based; conditions: Homo sapiens
A-375 [4] = experiment: MITF: Counter assay: A375 proliferation Measured in Cell-Based System Using Plate Reader - 2084-03_Inhibitor_Dose_DryPowder_Activity. [Related pubchem assays (depositor defined):AID488944]; assay type: functional; conditions: Homo sapiens
[5] = test system: Streptococcus sp. 'group A'; experiment: growth inhibition of control SK(-) GAS strain, dose response, counter-screen for streptokinase expression inhibitor project, luminescence, kanamycin, BacTiterGlo, confirmation (AID 1900); assay type: functional, organism-based
Streptokinase A = biological target: T1, Streptokinase A (Streptococcus pyogenes serotype M1, UniProt P10520); experiment: S. pyogenes streptokinase expression inhibitors, potency, dose response, plasminogen activation absorbance, OD405 (AID 1914); assay type: functional, Streptococcus pyogenes M1 GAS;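 also: secreted streptokinase activity via plasminogen activation per viability signal from cell pellet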
T1 sequence (P10520 whole entry): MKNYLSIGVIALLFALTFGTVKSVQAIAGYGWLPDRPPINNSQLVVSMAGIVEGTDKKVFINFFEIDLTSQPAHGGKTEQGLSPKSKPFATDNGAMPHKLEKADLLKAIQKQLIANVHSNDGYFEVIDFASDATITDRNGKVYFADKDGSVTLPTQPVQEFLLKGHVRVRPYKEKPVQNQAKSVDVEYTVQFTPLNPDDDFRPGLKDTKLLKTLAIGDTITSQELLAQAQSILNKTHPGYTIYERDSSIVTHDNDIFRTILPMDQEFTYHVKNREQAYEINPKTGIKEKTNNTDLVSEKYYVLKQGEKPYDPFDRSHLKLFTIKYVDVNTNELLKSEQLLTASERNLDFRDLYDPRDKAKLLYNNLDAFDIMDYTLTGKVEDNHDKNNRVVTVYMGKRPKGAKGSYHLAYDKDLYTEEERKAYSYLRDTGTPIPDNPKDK

[6] = biological target: Beta-2 adrenergic receptor (Homo sapiens, UniProt P07550); experiment: beta2AR agonists driving receptor internalization, dose response, cell-based, FAP fluorogen, flow cytometry, cherry pick 1 (AID 588763); assay type: functional
Chain of Beta-2 adrenergic receptor (P07550 whole entry): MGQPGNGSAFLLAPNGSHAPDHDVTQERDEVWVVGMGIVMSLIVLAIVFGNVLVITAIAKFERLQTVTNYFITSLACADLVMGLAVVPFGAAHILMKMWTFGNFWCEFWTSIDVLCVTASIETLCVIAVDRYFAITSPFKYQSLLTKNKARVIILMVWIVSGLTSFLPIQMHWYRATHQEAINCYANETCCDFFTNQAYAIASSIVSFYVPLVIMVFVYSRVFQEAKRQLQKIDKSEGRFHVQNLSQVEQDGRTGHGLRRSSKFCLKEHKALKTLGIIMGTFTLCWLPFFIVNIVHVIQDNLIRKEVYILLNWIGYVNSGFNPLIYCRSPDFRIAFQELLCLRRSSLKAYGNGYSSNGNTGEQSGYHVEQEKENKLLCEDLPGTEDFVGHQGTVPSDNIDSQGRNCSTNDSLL

Chain of Hexokinase HKDC1 (Q2TB90 whole entry, the tested form may be a part): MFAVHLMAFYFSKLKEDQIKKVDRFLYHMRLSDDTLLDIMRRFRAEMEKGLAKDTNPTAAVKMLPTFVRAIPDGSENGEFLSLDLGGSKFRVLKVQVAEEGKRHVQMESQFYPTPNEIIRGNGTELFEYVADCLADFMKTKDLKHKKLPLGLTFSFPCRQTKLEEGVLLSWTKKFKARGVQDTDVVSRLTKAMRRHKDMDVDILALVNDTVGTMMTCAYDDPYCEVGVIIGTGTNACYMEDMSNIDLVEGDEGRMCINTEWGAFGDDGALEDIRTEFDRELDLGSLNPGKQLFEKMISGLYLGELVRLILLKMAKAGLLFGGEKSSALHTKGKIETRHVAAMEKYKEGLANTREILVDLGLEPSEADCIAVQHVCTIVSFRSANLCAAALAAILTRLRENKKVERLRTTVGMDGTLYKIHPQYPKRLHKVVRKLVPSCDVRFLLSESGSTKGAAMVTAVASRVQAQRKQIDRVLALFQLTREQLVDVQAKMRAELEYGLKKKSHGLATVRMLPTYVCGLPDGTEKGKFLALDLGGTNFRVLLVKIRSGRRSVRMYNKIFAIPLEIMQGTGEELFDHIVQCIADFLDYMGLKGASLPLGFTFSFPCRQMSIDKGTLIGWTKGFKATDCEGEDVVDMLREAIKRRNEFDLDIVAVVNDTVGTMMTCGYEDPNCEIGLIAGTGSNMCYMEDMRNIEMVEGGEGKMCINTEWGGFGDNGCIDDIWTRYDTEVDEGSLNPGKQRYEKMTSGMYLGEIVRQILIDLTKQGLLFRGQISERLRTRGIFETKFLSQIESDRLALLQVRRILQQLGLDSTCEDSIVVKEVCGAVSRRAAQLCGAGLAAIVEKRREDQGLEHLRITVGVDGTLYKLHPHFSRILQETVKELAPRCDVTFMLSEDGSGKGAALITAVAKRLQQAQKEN

COc1cc2c(cc1OC)-c1cc(NC(C)c3ccccc3)nc(=O)n1CC2 (stereo not given)
IC50 (Hexokinase HKDC1): > 80 µM (inactive)
IC50 (Hexokinase-1): > 80 µM (inactive)

Nc1nc2ccccc2n1/N=C/c1ccc(-c2ccccc2)o1
EC50 [1]: 51.3 µM (active)
EC50 (Streptococcus): > 150 µM (not active)
EC50 [2]: 24.4 µM (active)
AC50 (A-375 [3]): > 35 µM (active)
AC50 (A-375 [4]): > 35 µM (active)
EC50 [5]: 5.7 µM (active)
EC50 (Streptokinase A): > 150 µM (not active)

Cc1ccc(CNC(=O)CCCCn2c(=O)[nH]c3ccsc3c2=O)cc1
EC50 [6]: 10.7 µM (inactive)

— ChEMBL document CHEMBL1201862, “PubChem BioAssay data set” (2004)
